The conditions of data set [1]: cited from earlier work.
For data set [2] the following is noted: cited from earlier work. The source holds these as a separate data set.
Data set [3] in a line: Plasma diflunisal in rats after subcutaneous polydiflunisal microspheres or oral diflunisal. Format: in vivo. The settings on record: single oral dose. An excerpt:
Processes for making nanoparticle formulations are also known in the art, and need not be fully described in this patent. The surface eroding property of polymers such as polydiflunisal makes for solid, non-porous particles, e.g. nano- and micro-spheres, useful for sustained drug delivery, and their release duration may be controlled by varying particle diameter, e.g. larger microparticles biodegrade more slowly than smaller ones. Nano- and microparticles for pharmaceutical formulations may be designed to deliver an agent(s) or compound(s) incorporated into the monomer, oligomer or polymer backbone and optionally an agent(s) blended, appended to, or dispersed in the polymer. […] Microparticle formulations of about 1, 2, 5, 7.5, 10, 25, 50 to about 10, 15, 30, 50, 75, 100, 250 μm are suitable for use in a pharmaceutical, veterinary or other type of formulations. Similarly, nanoparticle formulations may be administered for various applications, having a particle size about 1, 2, 5, 10 to about 15, 20, 30, 50, 100, 250, 500 nm, or various ranges between any two of these values. […]

The conditions of data set [4]: cited from earlier work. This is another data set of the same source.
The conditions of data set [5]: cited from earlier work; for Plasma Levels: Clinical Use, Anti-Inflammatory Effectiveness; for Plasma half-life: in vivo.
The conditions of data set [6]: in vivo; cited from earlier work.
In data set [7] the test system is Long Bone Critical Size Defect. Description: Long bone critical size defect model: bone formation and resorption. The settings on record: implant of polymer microspheres containing ≧0.5 g salicylic acid/cm^3 in a femur. The data set is classed as in vivo, Sprague Dawley retired breeder male rats. An excerpt: Nineteen (19) Sprague Dawley retired breeder male rats were employed in this experiment. In each animal, a 5 mm mid-shaft defect was created using an oscillating saw. The limbs were then stabilized using a custom 4-hole polymer plate and screws. In two groups of 6 rats each, the defects were filled with either the homopolymer or the copolymer. The remaining 7 rats had their defects filled with a collagen sponge to serve as controls. An equal number of animals from each group was sacrificed at 4 and 8 weeks post surgery. The only exception was that four control rats were used in the 8-week group. The defect sites were radiographed using a Hewlett-Packard Faxitron model 43804 and high resolution mammography film every 2 weeks until sacrifice. At term, the limbs were collected and prepared for non-decalcified histology. Mid-sagittal ground sections were prepared and stained using Sanderson's Rapid Bone Stain and Stevenel's Blue. New bone formed between inner-most fixation screws was measured on 2 slides per animal and averaged. Bone resorption, or loss, was also measured by approximating the original contours of the cortices, and measuring the difference in area relative to the remaining bone.

The values that follow come from patent publication US20050249697A1, “Compositions and methods for the inhibition of bone growth and resorption” (priority 2003, published 2005).

Read-outs that look alike come from different tables or passages of the source.

With `O=C(O)CCCCCCCCC(=O)O` [Sebacic Acid], the “Rat Oral LD50” value in data set [1] (oral) is recorded as 14,470 mg/kg.

`O=C(O)CCC(=O)O` [Succinic Acid]: the “Rat Oral LD50” value in data set [1] (in vivo, po) is listed as 8,530 mg/kg.

Consider `CN1CC[C@]23c4c5ccc(O)c4O[C@H]2[C@@H](O)C=C[C@H]3[C@H]1C5` [morphine], for which the pain relief entry is given as “profound pain relief” in data set [2] (1 mg injected into chronically-inflamed gum tissue) and “pain relief similar to that of 4 mg dexamethasone” in data set [2] (intra-articular injection of 3 mg in RA patients).

With `O=C(O)c1cc(-c2ccc(F)cc2F)ccc1O` [Diflunisal, 5-(2,4-difluoro-phenyl) salicylic acid], the “plasma drug level after dosing” value in data set [3] is recorded as “declined rapidly”. The “Water Solubility” value in data set [4] is recorded as “Very Low”. Moreover, in data set [5], the “Plasma Levels” value was 50 to 190 µg/mL and the “Plasma half-life” value is 8 to 12 h. For the same molecule, in data set [5] (Metabolism), the “No. Metabolites” value is listed as 2 and the “Where Metabolized” value is listed as “Liver, Intestine”. In addition, the LD50 (commonly the dose expected to kill half of the subjects tested) in data set [6] was 439 mg/kg.

For the molecule `O=C(O)c1ccccc1O` [Salicylic Acid], the “effect of local delivery at site of bone defect or injury” value in data set [7] is “prevents new bone growth, degradation and resorption”. For the same molecule, in data set [4], the “Water Solubility” value was “High”. Also, in data set [5], the “Plasma Levels” value is 150 to 300 µg/mL and the “Plasma half-life” value is 2.5 h.
